Results reported in ChEMBL document CHEMBL5724914, “Linking interpersonal differences in gut microbiota composition and drug biotransformation activity” (2024).

Experiments:
[1] = human gut metagenome, 24 h, 2 µM
[2] = human gut metagenome, 24 h, 2 µM; remark: listed apart in the source
[3] = (§1) The drug is tested on WLS-027 corresponding to human gut metagenome with ENA study accession number: PRJEB37062 and ENA sample accession number: ERS12561744 for biotransformation under anaerobic condition. The drug concentrations were measured over 9 timepoints collected between 0 and 24 hours of incubation by liquid-chromatography-coupled mass spectrometry (LC–MS); details: 2 µM
[4] = as §1, with “Z-007” for “WLS-027”, “rat” for “human”, “ERS12561807” for “ERS12561744”; details: 2 µM
[5] = as §1, with “Z-017” for “WLS-027”, “mouse” for “human”, “ERS12561816” for “ERS12561744”; details: 2 µM
[6] = as §1, with “WLS-007” for “WLS-027”, “ERS12561742” for “ERS12561744”; details: 2 µM
[7] = human gut metagenome, 24 h, 2 µM; remark: listed apart in the source
[8] = human gut metagenome, 24 h, 2 µM; remark: listed apart in the source
[9] = as §1, with “WLS-006” for “WLS-027”, “ERS12561741” for “ERS12561744”; details: 2 µM
[10] = human gut metagenome, 24 h, 2 µM; remark: listed apart in the source
[11] = as §1, with “WLS-220” for “WLS-027”, “ERS12561769” for “ERS12561744”; details: 2 µM
[12] = human gut metagenome, 24 h, 2 µM; remark: listed apart in the source
[13] = as §1, with “Z-001” for “WLS-027”, “mouse” for “human”, “ERS12561801” for “ERS12561744”; details: 2 µM
[14] = human gut metagenome, 24 h, 2 µM; remark: listed apart in the source
[15] = as §1, with “Z-002” for “WLS-027”, “rabbit” for “human”, “ERS12561802” for “ERS12561744”; details: 2 µM
[16] = as §1, with “Z-011” for “WLS-027”, “mouse” for “human”, “ERS12561811” for “ERS12561744”; details: 2 µM
[17] = as §1, with “WLS-073” for “WLS-027”, “ERS12561749” for “ERS12561744”; details: 2 µM
[18] = as §1, with “WLS-052” for “WLS-027”, “ERS12561747” for “ERS12561744”; details: 2 µM
[19] = as §1, with “Z-014” for “WLS-027”, “rat” for “human”, “ERS12561814” for “ERS12561744”; details: 2 µM
[20] = as §1, with “Z-024” for “WLS-027”, “pig” for “human”, “ERS12561823” for “ERS12561744”; details: 2 µM
Note: call rule not given here.

| SMILES | Bacterial Biotransformation [1] | Bacterial Biotransformation [2] | Bacterial Biotransformation [3] | Bacterial Biotransformation [4] | Bacterial Biotransformation [5] | Bacterial Biotransformation [6] | Bacterial Biotransformation [7] | Bacterial Biotransformation [8] | Bacterial Biotransformation [9] | Bacterial Biotransformation [10] | Bacterial Biotransformation [11] | Bacterial Biotransformation [12] | Bacterial Biotransformation [13] | Bacterial Biotransformation [14] | Bacterial Biotransformation [15] | Bacterial Biotransformation [16] | Bacterial Biotransformation [17] | Bacterial Biotransformation [18] | Bacterial Biotransformation [19] | Bacterial Biotransformation [20] |
| --- | --- | --- | --- | --- | --- | --- | --- | --- | --- | --- | --- | --- | --- | --- | --- | --- | --- | --- | --- | --- |
| COc1ccc([C@@H]2Sc3ccccc3N(CCN(C)C)C(=O)[C@@H]2OC(C)=O)cc1 [DILTIAZEM] | Compound NOT metabolized | Compound NOT metabolized | Compound metabolized | Compound NOT metabolized | Compound NOT metabolized | Compound NOT metabolized | Compound metabolized | Compound metabolized | Compound metabolized | Compound metabolized | Compound metabolized | Compound metabolized | Compound metabolized | Compound metabolized | Compound metabolized | Compound NOT metabolized | Compound metabolized | Compound NOT metabolized | Compound NOT metabolized | Compound NOT metabolized |
| OCCN(CCO)c1nc(N2CCCCC2)c2nc(N(CCO)CCO)nc(N3CCCCC3)c2n1 [DIPYRIDAMOLE] | Compound metabolized | Compound NOT metabolized | Compound metabolized | Compound NOT metabolized | Compound NOT metabolized | Compound metabolized | Compound metabolized | Compound metabolized | Compound NOT metabolized | Compound metabolized | Compound metabolized | Compound metabolized | Compound NOT metabolized | Compound NOT metabolized | Compound metabolized | Compound NOT metabolized | Compound NOT metabolized | Compound metabolized | Compound NOT metabolized | Compound metabolized |
| CN(C)CCOC(C)(c1ccccc1)c1ccccn1.O=C(O)CCC(=O)O (stereo not given) [DOXYLAMINE SUCCINATE] | Compound NOT metabolized | Compound NOT metabolized | Compound NOT metabolized | Compound NOT metabolized | Compound NOT metabolized | Compound NOT metabolized | Compound NOT metabolized | Compound NOT metabolized | Compound NOT metabolized | Compound NOT metabolized | Compound NOT metabolized | Compound NOT metabolized | Compound NOT metabolized | Compound NOT metabolized | Compound NOT metabolized | Compound NOT metabolized | Compound NOT metabolized | Compound NOT metabolized | Compound NOT metabolized | Compound NOT metabolized |
| Br.CN1CCC[C@@H]1Cc1c[nH]c2ccc(CCS(=O)(=O)c3ccccc3)cc12 [ELETRIPTAN HYDROBROMIDE] | Compound NOT metabolized | Compound NOT metabolized | Compound NOT metabolized | Compound NOT metabolized | Compound NOT metabolized | Compound metabolized | Compound metabolized | Compound metabolized | Compound NOT metabolized | Compound NOT metabolized | Compound metabolized | Compound NOT metabolized | Compound NOT metabolized | Compound metabolized | Compound metabolized | Compound NOT metabolized | Compound metabolized | Compound NOT metabolized | Compound NOT metabolized | Compound NOT metabolized |
| CCOc1ccc2nc(S(N)(=O)=O)sc2c1 [ETHOXZOLAMIDE] | Compound NOT metabolized | Compound NOT metabolized | Compound NOT metabolized | Compound NOT metabolized | Compound NOT metabolized | Compound NOT metabolized | Compound NOT metabolized | Compound NOT metabolized | Compound NOT metabolized | Compound NOT metabolized | Compound NOT metabolized | Compound NOT metabolized | Compound NOT metabolized | Compound metabolized | Compound NOT metabolized | Compound NOT metabolized | Compound NOT metabolized | Compound NOT metabolized | Compound NOT metabolized | Compound NOT metabolized |
| CCc1cccc2c3c([nH]c12)C(CC)(CC(=O)O)OCC3 (stereo not given) [ETODOLAC] | Compound NOT metabolized | Compound metabolized | Compound metabolized | Compound NOT metabolized | Compound NOT metabolized | Compound metabolized | Compound metabolized | Compound metabolized | Compound metabolized | Compound metabolized | Compound metabolized | Compound metabolized | Compound NOT metabolized | Compound metabolized | Compound NOT metabolized | Compound NOT metabolized | Compound NOT metabolized | Compound metabolized | Compound NOT metabolized | Compound NOT metabolized |
| CC(=O)OCC(CCn1cnc2cnc(N)nc21)COC(C)=O [FAMCICLOVIR] | Compound metabolized | Compound metabolized | Compound metabolized | Compound metabolized | Compound metabolized | Compound metabolized | Compound metabolized | Compound metabolized | Compound metabolized | Compound metabolized | Compound metabolized | Compound metabolized | Compound NOT metabolized | Compound metabolized | Compound metabolized | Compound metabolized | Compound metabolized | Compound metabolized | Compound metabolized | Compound metabolized |
| CC(C)(C)NC(=O)[C@H]1CC[C@H]2[C@@H]3CC[C@H]4NC(=O)C=C[C@]4(C)[C@H]3CC[C@]12C [FINASTERIDE] | Compound metabolized | Compound metabolized | Compound metabolized | Compound NOT metabolized | Compound NOT metabolized | Compound NOT metabolized | Compound metabolized | Compound metabolized | Compound metabolized | Compound metabolized | Compound metabolized | Compound metabolized | Compound NOT metabolized | Compound metabolized | Compound metabolized | Compound metabolized | Compound metabolized | Compound metabolized | Compound NOT metabolized | Compound metabolized |
